Assay results from ChEMBL document CHEMBL1123906, “Folate analogues. 30. Synthesis and biological evaluation of N10-propargyl-5,8-dideaza-5,6,7,8-tetrahydrofolic acid and related compounds” (J Med Chem, 1987).

Assays:
Enterococcus faecium [1] = experiment: Antimicrobial activity against Streptococcus faecium strain ATCC 8043; assay type: functional; set-up: unit not given here
Lacticaseibacillus casei [2] = experiment: Antimicrobial activity against Lactobacillus casei MTX-resistant strain; assay type: functional; set-up: unit not given here
Lacticaseibacillus casei [3] = experiment: Antimicrobial activity against Lactobacillus casei strain ATCC 7469; assay type: functional; set-up: unit not given here
Enterococcus faecium [4] = experiment: Antimicrobial activity against Streptococcus faecium strain, MTX-resistant; assay type: functional; set-up: unit not given here
Enterococcus faecium [5] = experiment: Antimicrobial activity against Streptococcus faecium strain, ATCC 8043; assay type: functional
Dihydrofolate reductase = Dihydrofolate reductase (Lactobacillus casei, UniProt P00381); experiment: Evaluated for the inhibition of dihydrofolate reductase in Lactobacillus casei; set-up: species or system Lacticaseibacillus casei
[6] = tested on: Thymidylate synthase (Bos taurus); experiment: Inhibition of Calf thymus thymidylate synthase in the presence of 20 uM
Thymidylate synthase [7] = target: T1, Thymidylate synthase (Lactobacillus casei, UniProt P00469); experiment: Evaluated for the inhibition of thymidylate synthase in Lactobacillus casei; set-up: species or system Lacticaseibacillus casei
T1 sequence (P00469 whole entry): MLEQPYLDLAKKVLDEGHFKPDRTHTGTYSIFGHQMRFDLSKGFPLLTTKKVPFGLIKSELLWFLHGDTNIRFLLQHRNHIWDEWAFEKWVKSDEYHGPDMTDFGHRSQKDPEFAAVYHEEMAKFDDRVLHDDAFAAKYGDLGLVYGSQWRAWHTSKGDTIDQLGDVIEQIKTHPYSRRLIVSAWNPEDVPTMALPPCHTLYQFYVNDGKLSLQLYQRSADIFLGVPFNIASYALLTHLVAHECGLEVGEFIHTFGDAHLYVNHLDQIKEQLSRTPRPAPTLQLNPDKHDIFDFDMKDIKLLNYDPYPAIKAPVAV

Thymidylate synthase [8] = target: T2, Thymidylate synthase (Mus musculus, UniProt P07607); experiment: Evaluated for the inhibition of thymidylate synthase in permeabilised L1210 cells; assay type: cell-based
Thymidylate synthase [9] = target: T2, Thymidylate synthase; experiment: Evaluated for the inhibition of thymidylate synthase in intact L1210 cells; assay type: cell-based
[10] = target: T3, Dihydropteroate synthase (Escherichia coli K-12) (UniProt P0AC13); experiment: Inhibition of E. uM; details: concentration not given here
T3 sequence (whole entry): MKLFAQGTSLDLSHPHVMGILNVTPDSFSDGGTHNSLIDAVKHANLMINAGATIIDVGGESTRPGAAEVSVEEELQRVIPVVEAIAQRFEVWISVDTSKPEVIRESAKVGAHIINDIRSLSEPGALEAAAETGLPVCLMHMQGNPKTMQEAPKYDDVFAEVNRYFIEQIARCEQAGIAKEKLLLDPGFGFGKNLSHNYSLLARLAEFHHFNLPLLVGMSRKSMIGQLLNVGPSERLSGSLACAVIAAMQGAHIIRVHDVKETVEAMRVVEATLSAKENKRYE

Sequence of Dihydrofolate reductase (P00381 whole entry): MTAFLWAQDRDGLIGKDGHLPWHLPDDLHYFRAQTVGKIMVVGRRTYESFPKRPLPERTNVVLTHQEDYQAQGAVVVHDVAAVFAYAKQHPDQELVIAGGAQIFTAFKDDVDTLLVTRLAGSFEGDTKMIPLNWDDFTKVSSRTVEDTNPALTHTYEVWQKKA
T2 sequence (P07607 whole entry): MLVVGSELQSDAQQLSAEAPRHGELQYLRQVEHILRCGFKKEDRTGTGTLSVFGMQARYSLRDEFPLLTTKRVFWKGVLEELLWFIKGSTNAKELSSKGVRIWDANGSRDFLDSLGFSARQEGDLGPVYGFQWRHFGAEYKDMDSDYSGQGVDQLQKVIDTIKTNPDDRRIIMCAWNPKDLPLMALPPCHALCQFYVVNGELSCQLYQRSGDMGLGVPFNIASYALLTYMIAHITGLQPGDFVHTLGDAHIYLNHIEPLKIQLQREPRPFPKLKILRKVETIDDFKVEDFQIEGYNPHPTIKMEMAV

| inhibition [10] | Structure (SMILES) | Activity (Enterococcus faecium [1]) | Activity (Lacticaseibacillus casei [2]) | Activity (Lacticaseibacillus casei [3]) | Activity (Enterococcus faecium [4]) | Activity (Enterococcus faecium [5]) | IC50 (Dihydrofolate reductase) | inhibition [6] | IC50 (Thymidylate synthase [7]) | IC50 (Thymidylate synthase [8]) | IC50 (Thymidylate synthase [9]) |
| --- | --- | --- | --- | --- | --- | --- | --- | --- | --- | --- | --- |
|  | C#CCN(Cc1ccc2[nH]c(N)nc(=O)c2c1)c1ccc(C(=O)NC(CCC(=O)O)C(=O)O)cc1 (configuration not stated) | 0.13 | 6400 | 0.4 | 20 |  |  |  |  |  |  |
|  | C#CCN(CC1CCc2nc(N)nc(O)c2C1)c1ccc(C(=O)NC(CCC(=O)O)C(=O)O)cc1 (configuration not stated) |  | >10000 | 4.7 | 350 | 1.8 | 10 µM | 50% | 23 µM | 11 µM | 1100 µM |
| 7% | Nc1nc(O)c2c(n1)CCC(CBr)C2 (configuration not stated) |  |  |  |  |  |  |  |  |  |  |
|  | CN(CC1CCc2nc(N)nc(O)c2C1)c1ccc(C(=O)O)cc1 (configuration not stated) | 5.2 | >20000 | 15800 | 8200 |  | > 200 µM |  | > 200 µM |  |  |
| 1.3% | Nc1nc(O)c2c(n1)CCC(CO)C2 (configuration not stated) |  |  |  |  |  |  |  |  |  |  |
|  | Nc1nc(O)c2c(n1)CCC(CNc1ccc(C(=O)O)cc1)C2 (configuration not stated) | 400 |  | >20000 | >20000 |  | > 200 µM |  | > 200 µM |  |  |
|  | CN(CC1CCc2nc(N)[nH]c(=O)c2C1)c1ccc(C(=O)NC(CCC(=O)O)C(=O)O)cc1 (configuration not stated) |  |  |  |  |  | 16 µM |  | 120 µM |  |  |
|  | C#CCN(CC1CCc2nc(N)nc(O)c2C1)c1ccc(C(=O)O)cc1 (configuration not stated) | 26 | >20000 | 1000 | 14000 |  | 190 µM |  | 610 µM |  |  |
|  | Nc1nc(O)c2c(n1)CCC(CNc1ccc(C(=O)NC(CCC(=O)O)C(=O)O)cc1)C2 (configuration not stated) |  | >20000 | 7.5 | 900 | 140 | 30 µM |  | > 280 µM | 12 µM | 1000 µM |

| Structure (SMILES) | inhibition [10] | Activity (Enterococcus faecium [1]) | Activity (Lacticaseibacillus casei [2]) | Activity (Lacticaseibacillus casei [3]) | Activity (Enterococcus faecium [4]) | Activity (Enterococcus faecium [5]) | IC50 (Dihydrofolate reductase) | inhibition [6] | IC50 (Thymidylate synthase [7]) | IC50 (Thymidylate synthase [8]) | IC50 (Thymidylate synthase [9]) |
| --- | --- | --- | --- | --- | --- | --- | --- | --- | --- | --- | --- |
| CN(CC1CCc2nc(N)nc(O)c2C1)c1ccc(C(=O)NC(CCC(=O)O)C(=O)O)cc1 (configuration not stated) | 35.1% |  | >20000 | 2.8 | 13 | 0.57 |  |  |  |  |  |
